Assays:
[1] = tested on: Staphylococcus aureus 209P; experiment: Anti-bacterial test, Chequer board method; type: cell-based
Description: Tests for anti-bacterial properties were conducted on compositions of the sample of chitosan and SMX, mixed according to the mixing ratios shown in Tables 1 through 3, respectively.
As strains to be tested, there are used Staphylococcus aureus 209P (a typical example of Gram positive bacteria), Escherichia coli NIHJ (a typical example of Gram negative bacteria) and Pseudomonas aeruginosa 3456.
The combined effects obtained by the present tests were determined in accordance with the Chequer board method with reference to the knowledges of Bushby et al (Bushby, S.R.M. & G.H. Hitchings: Trimethoprim. a sulfonamide potentiator. Brit. J. pharm. Chemother 33: 72 ~ 90, 1968) and Bohni et al (Bohni. E: Vergleichende bakteriologishe Untersuchungen mit der Kombination Trimethoprim/Sulfamethoxazol in vitro und in vivo. Chemotherapy. Suppl ad. 14: 1 21, 1969), both of whom reporting the combined effect between sulfamethoxazole (SMX) and trimethoprim (TMP), both of which are noted on the market at present. The results of the tests are shown in Table 1 through 3, respectively.

[2] = tested on: Escherichia coli NIHJ; experiment: Survival of mice infected with Escherichia coli; type: in vivo, ICR mice (male); details: in 28 hours; dosage of SMX of 5 or 10 mg in two hours after the infection
Excerpt: A strain of Escherichia coli NIHJ is floated in physiologic saline, and a mixture solution containing the strain of Escherichia coli NINJ and 4% mucin, being equal in absorbance to each other is produced. ICR mice (male) were fed with […] this mixture solution containing the bacteria. As the result, all examples of the mice infected with the strain of Escherichia coli (intra Peritoneal administration of 5 ~ 10 times LDso in mice) died in twelve hours (The first contrast group). Subsequently, 80 m 90% of the group of mice on the dosage of SMX of 5 or 10 mg in two hours after the infection were still alive in 24 hours. The rate of survival of the group of mice decreased to 10 ~ 20% in 28 hours.

Cc1cc(NS(=O)(=O)c2ccc(N)cc2)no1 [SMX, sulfamethoxazol]
MIC ([1]; Staphylococcus aureus, 209P, SMX solely used, in a test tube, read-out: minimum inhibition concentration (MIC) of SMX): 50 µg/mL | MIC of SMX ([1]; chitosan added at a rate of 2.5 µg/mℓ): 3.1 µg/mL | anti-bacterial action is increased ([1]; chitosan added at a rate of 2.5 µg/mℓ, versus SMX solely used): about 16 times SMX | rate of survival [2]: 10 ~ 20%
